Experimental data reported in PubChem BioAssay AID179 (DTP/NCI, 2004).
Values joined by “and” are separate entries in the source; they are usually repeats but may differ in a detail not shown here. Identical values can stand only once. Active and inactive are the calls of the source.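 Rule for the calls: active = compounds giving half or more protection of infected cells from virus-caused growth loss, again on retest; inactive = the rest.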 Where a SMILES comes first, the peptide text is derived from it. The star is where a group is joined. Boc = CC(C)(C)OC(=O)*

Test system: CEM cells HIV-1 protection, formazan growth assay
Assay: NCI AIDS Antiviral Assay
Settings: for IC50: measured here: growth of uninfected CEM cells
Outline: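 Protection of CEM cells against HIV-1 measured as cell growth via soluble formazan read-out, with five concentrations tested on both infected and uninfected cells; failure to protect may reflect toxicity.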

Structure (SMILES)	EC50	IC50	outcome
[N-]=[N+]=NCC1OCC(O)C(OCc2ccccc2)C1OCc1ccccc1 (centres undefined)	> 200 µM	95.5 µM	
CCn1c(=O)nc2n(-c3ccccc3)c3ccccc3nc-2c1=O			inactive
CC1(C)C(=O)C(C(Cl)(Cl)Cl)=C(Cl)C(=O)C1(Cl)Cl	> 200 µM	25.7 µM	
N#CC(C#N)=CN1CCNC1=S	> 200 µM	> 200 µM	
CN1C(=O)OC2CC/C=C\CCC2C1c1ccccc1 (centres undefined)			inactive
Nc1ncnc2c1ncn2C1CC(OCc2ccccc2[N+](=O)[O-])C(CO)O1 (centres undefined)	> 50.1 µM	36.3 µM	
COc1ccc2c(c1)OC(c1ccccc1O)CC2=O (centres undefined)	> 186 µM	30.2 µM	
COC(=O)C(C)NC(=O)C(CCSC)NC(=O)C(Cc1ccccc1)NC(=O)OC(C)(C)C (stereo not drawn) (Boc-Phe-Met-Ala-OMe; configuration not given here)	> 200 µM		
O=[N+]([O-])c1ccc(C[P+](c2ccccc2)(c2ccccc2)c2ccccc2)cc1	> 200 µM	87.1 µM and 40.7 µM	
O=S(=O)(OI(OI(OS(=O)(=O)C(F)(F)F)c1ccccc1)c1ccccc1)C(F)(F)F	> 347 µM	6.92 µM	
O=C(N/C(=C\c1ccccc1Cl)c1nc2ccccc2[nH]1)c1ccccc1			inactive
O=S(Cc1ccccn1)c1nc2ccccc2nc1-c1ccccc1 (centres undefined)	> 28.8 µM	> 28.8 µM	
CC(C)OP(=O)(OC(C)C)/C(I)=N/Nc1ccc([N+](=O)[O-])cc1	> 110 µM	> 110 µM	
Cc1cccc(NC(=O)Nc2ccccc2F)n1	> 200 µM	> 200 µM	
CC(=O)C1CCC2[C@@H]3CCC4c5nn(-c6ccccc6)nc5CC[C@]4(C)C3CC[C@]12C (some centres undefined)			inactive
COc1ccc(CNc2cnc3cc(N)ccc3n2)cc1	> 67.6 µM	> 67.6 µM	
O=C(O)c1ccc(C(=O)c2ccccc2)c(C(=O)O)c1	> 200 µM	> 200 µM	
O=C(CSc1nnc(Cc2ccccc2)o1)Nc1cccc(Cl)c1	> 100 µM	49 µM	
COc1nc(NC2OC(CO)C(O)C(O)C2O)cc(=O)[nH]1 (centres undefined)			inactive
OCCCSCCCCSCCCO	> 41.7 µM	> 41.7 µM	
CC1(C)CC(=O)C(/C=N/C(=S)NC2CCCCC2)=C(O)C1	> 100 µM	> 100 µM	
Nc1nc2c(c(=O)[nH]1)C(c1ccc(Cl)cc1)C=C(c1ccccc1)N2 (centres undefined)	> 200 µM	14.1 µM	

Structure (SMILES)	EC50	IC50	outcome
CC(C)NC(=O)OCCS(=O)c1c(Cl)c(Cl)nn1C (centres undefined)	> 200 µM	33.1 µM	
COC(OC)[C@@H]1OC[C@@H](O)[C@@H]1n1cnc2c(N)ncnc21	> 200 µM	> 200 µM	
COc1ccc(C(=O)c2ccc(OC)c3ccccc23)c2ccccc12	> 200 µM	1.51 µM	
CC(C)[C@](O)(C(=O)OCC1=CCN2CC[C@@H](O)[C@@H]12)[C@H](C)O	> 417 µM	> 417 µM	
COC(CN1CCOCCOCCOCC1)CN1CCOCCOCCOCC1	> 2510 µM	> 2510 µM	
CCOC(=O)NC1CN2CCC1CC2 (centres undefined)	> 200 µM	> 200 µM	
COC(=O)C(C(=O)Cc1ccccc1[N+](=O)[O-])C(=O)OC	> 251 µM	102 µM	
CC(C)(C)OC(=O)N1CCCC1C(=O)N1CCCC1C(=O)Oc1ccccc1 (centres undefined)	> 67.6 µM	> 67.6 µM	
O=Nc1c(O)ccc2ccccc12.O=Nc1c(O)ccc2ccccc12.O=Nc1c([O-])ccc2ccccc12.[Fe+3]	> 129 µM	95.5 µM	
COc1ccc(-c2onc(-c3c(C)cc(C)cc3C)c2C2=NCCCN2)cc1	> 50.1 µM	> 50.1 µM	
c1cc(-c2csc(-c3ccsc3)c2)cs1	> 200 µM	> 200 µM	
N#Cc1ccc(/C=C/C(=O)c2ccccc2)cc1	> 30.9 µM	14.5 µM	
COc1ccc(COCC[C@H](C)OC2OC(CO[Si](C)(C)C(C)(C)C)C(OC(=O)CCCN=[N+]=[N-])C(OC(=O)CCCN=[N+]=[N-])C2OC(=O)CCCN=[N+]=[N-])cc1 (some centres undefined)	> 200 µM	26.3 µM	
O=[N+]([O-])c1ccc(Cl)cc1N/N=C/c1cccc2cccnc12	> 200 µM	> 200 µM	
CSc1nnc(C(C#N)C#N)nn1			inactive
C/C(O)=C(\C=N\C(=S)N=Nc1c(O)[nH]c2ccccc12)C(=O)Nc1ccccc1C	> 200 µM	> 200 µM	
N=c1c2ccccc2nnn1Cc1ccccc1	> 178 µM	> 178 µM	
CC1=NN(c2ccccc2)C(=O)/C1=C1\SS/C(=C2\C(=O)N(c3ccccc3)N=C2C)S1	> 100 µM	> 100 µM	
NNC1=Nc2cc3c(cc2C(=O)N2C[C@H](O)CC12)OCO3 (some centres undefined)	> 200 µM	> 200 µM	
CN(Nc1cc(=O)[nH]c(=O)[nH]1)c1ccccc1	> 200 µM	> 200 µM	
CSc1nc2[nH]c(=O)n(O)c(=O)c2n1Cc1ccccc1	> 200 µM	3.8 µM	
CN1CN(c2ccccc2)C2(CCN(Cc3csc4ccccc34)CC2)C1=O	> 200 µM	66.1 µM	

Structure (SMILES)	EC50	IC50	outcome
COc1cc(C(=O)CC2(O)C(=O)Nc3c(Cl)cc(Cl)cc32)ccc1O (centres undefined)	> 468 µM	91.2 µM	
COC(=O)C1=CCC(n2cnc3c(Cl)nc(N)nc32)CC1 (centres undefined)	> 115 µM	47.9 µM	
CC(=O)Nc1ccccc1-c1ccccc1NC(C)=O			inactive
Cn1c(-c2ccccc2)cc(-c2ccc3c(c2)OCO3)c1-c1cccs1	> 200 µM	> 200 µM	
COC1=C(C)C2CC(=O)OC3CC4C(C)CC(O)C(=O)[C@]4(C)C(C1=O)[C@@]32C (some centres undefined)			inactive
Cc1ccc(S(=O)(=O)NC(=O)NCCSSCCNC(=O)NS(=O)(=O)c2ccc(C)cc2)cc1	> 200 µM	> 200 µM	
CCC(C)C(NC(=O)C(CCCCN)NC(=O)CNC(=O)C(NC(=O)C(NC(=O)C(NC(=O)C(Cc1ccccc1)NC(=O)C(C)NC(=O)C(CCCNC(=N)N)NC(=O)CNC(=O)C1CCCN1C(=O)CNC(=O)C(CCCNC(=N)N)NC(=O)C(CCC(N)=O)NC(=O)C(NC(=O)C(CCCNC(=N)N)NC(=O)C(NC(=O)C(CO)NC(=O)C(CCCCN)NC(=O)C(CCCNC(=N)N)NC(=O)C(NC(=O)C(CC(N)=O)NC(=O)C(N)CC(=O)NC1OC(CO)C(O)C(O)C1NC(C)=O)C(C)O)C(C)CC)C(C)CC)C(C)C)C(C)O)C(C)CC)C(=O)NCC(N)=O (centres undefined)	> 50.1 µM	> 50.1 µM	
Cc1cc(NS(=O)(=O)c2ccc(NC(=O)c3cccc4c(=O)c5ccccc5[nH]c34)cc2)no1			inactive
CC1CSC(=S)N1C(=O)N1C(=S)SCC1C (centres undefined)			inactive
COc1ccc2c(c1)OC[C@@H]1c3cc(O)c(OCc4ccccc4)cc3O[C@]21C	> 200 µM	24 µM	
CC(NC1=NCCO1)c1ccsc1 (centres undefined)	> 200 µM	64.6 µM	
NC(CCCCNCc1ccccc1)C(=O)O (centres undefined)	> 1050 µM	> 1050 µM	
COC(=O)c1cc2cc(CS(=O)(=O)O)ccc2cc1O	> 200 µM	102 µM	
O=C1c2ccccc2Sc2ccccc2N1CCN1CCN(c2ccc(F)cc2)CC1	> 200 µM	> 200 µM	
OCC(O)C(OC1OC(CO)C(O)C(O)C1O)c1nn(-c2ccccc2)c2nc3cc(Cl)ccc3nc12 (centres undefined)			inactive
C=CCOC(C)n1c(C)c(Br)c(=O)[nH]c1=O (centres undefined)		> 200 µM	inactive
COc1cc(CCCl)c(CC2=NCCc3cc(OC)c(OC)cc32)cc1OC	> 200 µM	31.6 µM	
CC(=O)Nc1nc(C#N)[nH]c1C#N	> 200 µM	> 200 µM	
Cc1cccc(NC(=O)Nc2ccccc2Cl)n1	> 200 µM	> 200 µM	
CCCCCCCCCCCCCCCC(=O)ON1C(=S)NC(C)(c2ccccc2)C1=S (centres undefined)	> 200 µM	77.6 µM	
OCC(Oc1ccccc1)C(O)C(O)C(CO)Oc1ccccc1 (centres undefined)	> 200 µM	> 200 µM	
CCC(C)C(NC(=O)C(N)CCCCN)C(=O)NC(CCC(N)=O)C(=O)NC(CO)C(=O)NC(C(=O)O)C(C)O (centres undefined) (H-KIQST-OH; configuration not given here)	> 115 µM	> 115 µM	

Structure (SMILES)	EC50	IC50	outcome
CCC(C)C(NC(=O)c1ccccc1SC(=O)OCCCC[n+]1ccccc1)C(N)=O (centres undefined)			inactive
CN[C@@H]1[C@H](O)[C@H](NC)[C@H]2O[C@@]3(O)C(=O)C[C@@H](C)O[C@H]3O[C@@H]2[C@H]1O	> 200 µM	> 200 µM	
CC(C)c1ccccc1NC(=O)/C(Cl)=C1/Sc2ccccc2NC1=O	> 10 µM	> 10 µM	
O=C(c1ccccc1F)c1c(NCc2ccccc2)c(=O)c1=O	53.7 µM	102 µM	
CN(C(=O)C12C3C4C1C1C4(C(=O)C45C6C7C4C4C5C6C74C)C3C12C)C(C)(C)C (centres undefined)			inactive
O=S1(=O)OC(c2ccc(O)cc2)(c2ccc(O)cc2)c2ccccc21			inactive
CC(=O)C(C(C)=O)=C1CCCC(O)O1 (centres undefined)	> 200 µM	174 µM	
Cc1ccc(CS(=O)(=O)C/N=c2\sc3ccccc3nc2/C=C(\O)c2ccc(Cl)cc2)cc1	> 200 µM	> 200 µM	
CCN(CC)CCN(CC)CC(=O)Nc1ccccc1Cl	> 200 µM	> 200 µM	
CC(C)(Sc1cc(C(C)(C)C)c(O)c(C(C)(C)C)c1)Sc1cc(C(C)(C)C)c(O)c(C(C)(C)C)c1	> 26.3 µM	> 26.3 µM	
Nc1ncnc2c1Sc1nc(Cl)ccc1N2	> 14.8 µM	> 14.8 µM	
N#CC(C(=O)CCCC(=O)Nc1ccc(Cl)cc1Cl)c1ccc(Cl)cc1 (centres undefined)			inactive
O=C1CCCCCCCCCCC1CN1CCCC1 (centres undefined)			inactive
N#Cc1c(C#N)c(SSc2c(C#N)c(C#N)c(N)n2-c2ccccc2)n(-c2ccccc2)c1N	> 20 µM	1.95 µM	
CON(C)C(=O)C(C)NC(=O)OC(C)(C)C (centres undefined)	> 155 µM	> 155 µM	
Cc1ccc2c3c(c(C)nc2c1)C(=O)c1ccccc1-3	> 10.5 µM	> 10.5 µM	
CCCC(=O)NC(Nc1ccc(F)cc1)(C(F)(F)F)C(F)(F)F			inactive
Cc1ccc(S(=O)(=O)C(C#N)c2nc3ccccc3nc2-n2cccn2)cc1 (centres undefined)	> 200 µM	126 µM	
COC(=O)CN1C(=O)c2cccc3cc(N)cc(c23)C1=O	> 200 µM	> 200 µM	
O=c1[nH]nnc2c1sc1ncccc12	> 200 µM	> 200 µM	
